Laboratory results taken from US20220409619A1, “INHIBITORS OF HUMAN IMMUNODEFICIENCY VIRUS REPLICATION” (VIIV HEALTHCARE UK (No. 5) LIMITED, priority 2019, published 2022).

What was measured:
[1] = system: recombinant NL4-3 virus (nef section replaced with Renilla luciferase gene) in MT-2 cells; experiment: HIV cell culture assay (antiviral activity, luciferase readout); assay type: cell-based; settings: Renilla, NL43
Procedure, shortened: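 MT-2 cells were infected for 4-5 days with 293T-derived NL4-3 Renilla-luciferase reporter virus in the presence of serial compound dilutions. Luciferase was read with EnduRen live-cell substrate. EC50 was fitted with the median effect equation.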

[2] = Compound cytotoxicity, XTT-based colorimetric assay; assay type: cell-based; settings: human; uninfected MT2 cells, day 4, XTT-based colorimetric assay
Procedure, shortened: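 Run under the antiviral-assay protocol but without virus. Viability was read on day 4 and CC50 values were derived from the readout.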

| Compound | EC50 [1] | CC50 at 4 days [2] |
| --- | --- | --- |
| Cn1nc(NS(C)(=O)=O)c2c(Cl)ccc(-n3c([C@H](Cc4cc(F)cc(F)c4)NC(=O)Cn4nc(C(F)F)c5c4C(F)(F)[C@@H]4C[C@H]54)nc(-c4cnccn4)cc3=O)c21 (atropisomer, axis not shown; (P)) [Example 20, N-((S)-1-((1P)-1-(4-chloro-1-methyl-3-(methylsulfonamido)-1H-indazol-7-yl)-6-oxo-4-(pyrazin-2-yl)-1,6-dihydropyrimidin-2-yl)-2-(3,5-difluorophenyl)ethyl)-2-((3bS,4aR)-3-(difluoromethyl)-5,5-difluoro-3b,4,4a,5-tetrahydro-1H-cyclopropa[3,4]cyclopenta[1,2-c]pyrazol-1-yl)acetamide] | 0.16 nM | > 100 nM |
| Cn1nc(NS(C)(=O)=O)c2c(Cl)ccc(-n3c([C@H](Cc4cc(F)cc(F)c4)NC(=O)Cn4nc(C(F)F)c5c4C(F)(F)[C@@H]4C[C@H]54)nc(-c4cnc(C(C)(C)O)s4)cc3=O)c21 (atropisomer, axis not shown; (P)) [Example 25, N-((S)-1-((1P)-1-(4-chloro-1-methyl-3-(methylsulfonamido)-1H-indazol-7-yl)-4-(2-(2-hydroxypropan-2-yl)thiazol-5-yl)-6-oxo-1,6-dihydropyrimidin-2-yl)-2-(3,5-difluorophenyl)ethyl)-2-((3bS,4aR)-3-(difluoromethyl)-5,5-difluoro-3b,4,4a,5-tetrahydro-1H-cyclopropa[3,4]cyclopenta[1,2-c]pyrazol-1-yl)acetamide] | 1.5 nM | > 100 nM |
| Cc1cc(C)nc(-c2cc(=O)n(-c3ccc(Cl)c4c(NS(C)(=O)=O)nn(C)c34)c([C@H](Cc3cc(F)cc(F)c3)NC(=O)Cn3nc(C(F)F)c4c3C(F)(F)[C@@H]3C[C@H]43)n2)n1 (atropisomer, axis not shown; (aR)) [Example 4, N-((S)-1-((1′P)-1′-(4-chloro-1-methyl-3-(methylsulfonamido)-1H-indazol-7-yl)-4,6-dimethyl-6′-oxo-1′,6′-dihydro-[2,4′-bipyrimidin]-2′-yl)-2-(3,5-difluorophenyl)ethyl)-2-((3bS,4aR)-3-(difluoromethyl)-5,5-difluoro-3b,4,4a,5-tetrahydro-1H-cyclopropa[3,4]cyclopenta[1,2-c]pyrazol-1-yl)acetamide] | 0.044 nM | > 100 nM |
| O=C(Cn1nc(C(F)F)c2c1C(F)(F)[C@@H]1C[C@H]21)N[C@@H](Cc1cc(F)cc(F)c1)c1nc(-c2ncccn2)cc(=O)n1-c1ccc(Cl)c2c(NS(=O)(=O)C3CC3)nn(CC(F)F)c12 (atropisomer, axis not shown; (aR)) [Example 48, N-((S)-1-((1′P)-1′-(4-chloro-3-(cyclopropanesulfonamido)-1-(2,2-difluoroethyl)-1H-indazol-7-yl)-6′-oxo-1′,6′-dihydro-[2,4′-bipyrimidin]-2′-yl)-2-(3,5-difluorophenyl)ethyl)-2-((3bS,4aR)-3-(difluoromethyl)-5,5-difluoro-3b,4,4a,5-tetrahydro-1H-cyclopropa[3,4]cyclopenta[1,2-c]pyrazol-1-yl)acetamide] | 0.18 nM | > 100 nM |
| CCOc1ncc(-c2cc(=O)n(-c3ccc(Cl)c4c(NS(=O)(=O)C5CC5)nn(CC(F)F)c34)c([C@H](Cc3cc(F)cc(F)c3)NC(=O)Cn3nc(C(F)F)c4c3C(F)(F)[C@@H]3C[C@H]43)n2)cn1 (atropisomer, axis not shown; (P)) [Example 49, N-((S)-1-((1P)-1-(4-chloro-3-(cyclopropanesulfonamido)-1-(2,2-difluoroethyl)-1H-indazol-7-yl)-2′-ethoxy-6-oxo-1,6-dihydro-[4,5′-bipyrimidin]-2-yl)-2-(3,5-difluorophenyl)ethyl)-2-((3bS,4aR)-3-(difluoromethyl)-5,5-difluoro-3b,4,4a,5-tetrahydro-1H-cyclopropa[3,4]cyclopenta[1,2-c]pyrazol-1-yl)acetamide] | 0.58 nM | > 100 nM |
| O=C(Cn1nc(C(F)(F)F)c2c1C(F)(F)[C@@H]1C[C@H]21)N[C@@H](Cc1cc(F)cc(F)c1)c1nc(-c2nccc(C(F)(F)F)n2)cc(=O)n1-c1ccc(Cl)c2c(NS(=O)(=O)C3CC3)nn(CC(F)F)c12 [Example 26, N-((S)-1-((1′P)-1′-(4-chloro-3-(cyclopropanesulfonamido)-1-(2,2-difluoroethyl)-1H-indazol-7-yl)-6′-oxo-4-(trifluoromethyl)-1′,6′-dihydro-[2,4′-bipyrimidin]-2′-yl)-2-(3,5-difluorophenyl)ethyl)-2-((3bS,4aR)-5,5-difluoro-3-(trifluoromethyl)-3b,4,4a,5-tetrahydro-1H-cyclopropa[3,4]cyclopenta[1,2-c]pyrazol-1-yl)acetamide] | 0.11 nM | > 100 nM |
| CC(C)(C#Cc1cc(=O)n(-c2ccc(Cl)c3c(NS(=O)(=O)C4CC4)nn(CC(F)F)c23)c([C@H](Cc2cc(F)cc(F)c2)NC(=O)Cn2nc(C(F)F)c3c2C(F)(F)[C@@H]2C[C@H]32)n1)S(C)(=O)=O (atropisomer, axis not shown; (P)) [Example 47, N-((S)-1-((1P)-1-(4-chloro-3-(cyclopropanesulfonamido)-1-(2,2-difluoroethyl)-1H-indazol-7-yl)-4-(3-methyl-3-(methylsulfonyl)but-1-yn-1-yl)-6-oxo-1,6-dihydropyrimidin-2-yl)-2-(3,5-difluorophenyl)ethyl)-2-((3bS,4aR)-3-(difluoromethyl)-5,5-difluoro-3b,4,4a,5-tetrahydro-1H-cyclopropa[3,4]cyclopenta[1,2-c]pyrazol-1-yl)acetamide] | 0.047 nM | > 100 nM |
| Cn1nc(NS(C)(=O)=O)c2c(Cl)ccc(-n3c([C@H](Cc4cc(F)cc(F)c4)NC(=O)Cn4nc(C(F)F)c5c4C(F)(F)[C@@H]4C[C@H]54)nc(-c4csc(S(C)(=O)=O)n4)cc3=O)c21 (atropisomer, axis not shown; (P)) [Example 17, N-((S)-1-((1P)-1-(4-chloro-1-methyl-3-(methylsulfonamido)-1H-indazol-7-yl)-4-(2-(methylsulfonyl)thiazol-4-yl)-6-oxo-1,6-dihydropyrimidin-2-yl)-2-(3,5-difluorophenyl)ethyl)-2-((3bS,4aR)-3-(difluoromethyl)-5,5-difluoro-3b,4,4a,5-tetrahydro-1H-cyclopropa[3,4]cyclopenta[1,2-c]pyrazol-1-yl)acetamide] | 0.81 nM | > 100 nM |
| Cn1nc(NS(C)(=O)=O)c2c(Cl)ccc(-n3c([C@H](Cc4cc(F)cc(F)c4)NC(=O)Cn4nc(C(F)F)c5c4C(F)(F)[C@@H]4C[C@H]54)nc(-c4ccn(CC(C)(F)F)n4)cc3=O)c21 (atropisomer, axis not shown; (P)) [Example 8, N-((S)-1-((1P)-1-(4-chloro-1-methyl-3-(methylsulfonamido)-1H-indazol-7-yl)-4-(1-(2,2-difluoropropyl)-1H-pyrazol-3-yl)-6-oxo-1,6-dihydropyrimidin-2-yl)-2-(3,5-difluorophenyl)ethyl)-2-((3bS,4aR)-3-(difluoromethyl)-5,5-difluoro-3b,4,4a,5-tetrahydro-1H-cyclopropa[3,4]cyclopenta[1,2-c]pyrazol-1-yl)acetamide] | 0.28 nM | > 100 nM |
